Results taken from the supplement of paper PMC10307832.

Compound: CCOC1=CC=CC=C1N=NC2=C(NN(C2=O)C3=NC(=CS3)C4=CC=CC=C4)C [BAM7] + CC(=O)c1c(C)c2cnc(Nc3ccc(N4CCNCC4)cn3)nc2n(C2CCCC2)c1=O [Palbociclib] (partner 0.5 µM)
Assay: relative viability (nuclei count vs DMSO), 5 days (fraction); higher = more cells survive
Conditions: first compound 0.5 µM
How it was run: (§1)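 Dosing by pin tool came one day after lung cancer cell lines were seeded in 1536-well plates, using either one drug or a fixed anchor-drug dose plus five library-drug doses (not always all listed) in √10 steps. After 5 days, nuclei were counted on 4× images. Relative viability is treated-well nuclei count divided by vehicle-well nuclei count, and values are medians of duplicate plates.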

Cell Line	relative viability
NCI-H522	1.19
NCI-H727	0.579
NCI-H1650	0.351
NCI-H1993	0.502
SW 1573	0.433
NCI-H838	0.24
LCLC-103H	0.507
NCI-H520	0.262
NCI-H2126	0.334
EMC-BAC-2	0.512
NCI-H2085	0.462
HCC-366	0.406
NCI-H1666	0.628
LK-2	0.662
NCI-H1648	0.303

Same assay, conditions: first compound 5 µM

Cell Line	relative viability
NCI-H522	0.986
NCI-H727	0.689
NCI-H1650	0.268
NCI-H1993	0.539
SW 1573	0.396
NCI-H838	0.243
LCLC-103H	0.493
NCI-H520	0.233
NCI-H2126	0.332
EMC-BAC-2	0.519
NCI-H2085	0.483
HCC-366	0.343
NCI-H1666	0.627
LK-2	0.648
NCI-H1648	0.257

Same assay, conditions: first compound 15.81 µM

Cell Line	relative viability
NCI-H522	0.649
NCI-H727	0.714
NCI-H1650	0.304
NCI-H1993	0.453
SW 1573	0.356
NCI-H838	0.222
LCLC-103H	0.484
NCI-H520	0.235
NCI-H2126	0.345
EMC-BAC-2	0.524
NCI-H2085	0.446
HCC-366	0.303
NCI-H1666	0.669
LK-2	0.741
NCI-H1648	0.264

Same assay, conditions: first compound 50 µM

Cell Line	relative viability
NCI-H522	1.16
NCI-H727	0.731
NCI-H1650	0.456
NCI-H1993	0.478
SW 1573	0.391
NCI-H838	0.218
LCLC-103H	0.529
NCI-H520	0.26
NCI-H2126	0.362
EMC-BAC-2	0.563
NCI-H2085	0.45
HCC-366	0.389
NCI-H1666	0.677
LK-2	0.598
NCI-H1648	0.375

Compound: CCOC1=CC=CC=C1N=NC2=C(NN(C2=O)C3=NC(=CS3)C4=CC=CC=C4)C [BAM7] + COc1cccc2cc(-c3nc([C@H]4CC[C@H](C(=O)O)CC4)n4ncnc(N)c34)[nH]c12 [OSI-027] (partner 0.5 µM)
Assay: as above
Conditions: first compound 0.5 µM
How it was run: as §1

Cell Line	relative viability
NCI-H522	0.976
NCI-H1623	0.422
NCI-H727	0.591
NCI-H1650	0.542
NCI-H1993	0.537
SW 1573	0.753
NCI-H838	0.365
LCLC-103H	0.366
NCI-H520	0.305
NCI-H2126	0.662
EMC-BAC-2	0.378
NCI-H2085	0.733
HCC-366	0.879
NCI-H1666	0.899
NCI-H596	0.686
LK-2	0.206
NCI-H1648	0.275
NCI-H1563	0.729

Same assay, conditions: first compound 5 µM

Cell Line	relative viability
NCI-H522	0.744
NCI-H1623	0.383
NCI-H727	0.509
NCI-H1650	0.512
NCI-H1993	0.538
SW 1573	0.708
NCI-H838	0.435
LCLC-103H	0.505
NCI-H520	0.263
NCI-H2126	0.733
EMC-BAC-2	0.384
NCI-H2085	0.571
HCC-366	0.839
NCI-H1666	0.786
NCI-H596	0.576
LK-2	0.205
NCI-H1648	0.282
NCI-H1563	0.721

Same assay, conditions: first compound 15.81 µM

Cell Line	relative viability
NCI-H522	0.687
NCI-H1623	0.368
NCI-H727	0.523
NCI-H1650	0.498
NCI-H1993	0.553
SW 1573	0.591
NCI-H838	0.405
LCLC-103H	0.504
NCI-H520	0.293
NCI-H2126	0.736
EMC-BAC-2	0.355
NCI-H2085	0.52
HCC-366	0.729
NCI-H1666	0.875
NCI-H596	0.593
LK-2	0.225
NCI-H1563	0.763

Same assay, conditions: first compound 50 µM

Cell Line	relative viability
NCI-H522	0.831
NCI-H1623	0.349
NCI-H727	0.738
NCI-H1650	0.73
NCI-H1993	0.568
SW 1573	0.711
NCI-H838	0.379
LCLC-103H	0.537
NCI-H520	0.356
NCI-H2126	0.641
EMC-BAC-2	0.461
NCI-H2085	0.678
HCC-366	0.784
NCI-H1666	0.929
NCI-H596	0.725
LK-2	0.218
NCI-H1648	0.283
NCI-H1563	0.791

Compound: CCn1c(-c2nonc2N)nc2c(C#CC(C)(C)O)ncc(OC[C@H]3CCCNC3)c21 + N=C(N)NC(=N)NCCc1ccccc1 [Phenformin] (partner 250 µM)
Assay: as above
Conditions: first compound 0.01 µM
How it was run: as §1

Cell Line	relative viability
NCI-H522	0.636
NCI-H1623	0.604
NCI-H727	0.468
NCI-H1650	0.457
NCI-H1993	0.485
SW 1573	0.344
NCI-H838	0.564
LCLC-103H	0.323
NCI-H520	0.424
NCI-H2126	0.565
EMC-BAC-2	0.487
NCI-H2085	0.627
HCC-366	0.573
NCI-H1666	0.614
NCI-H596	0.74
LK-2	0.515
A549	0.197
NCI-H1563	0.623

Same assay, conditions: first compound 0.03162 µM

Cell Line	relative viability
NCI-H522	0.648
NCI-H1623	0.526
NCI-H727	0.461
NCI-H1650	0.478
NCI-H1993	0.47
SW 1573	0.274
NCI-H838	0.557
LCLC-103H	0.355
NCI-H520	0.561
NCI-H2126	0.498
EMC-BAC-2	0.491
NCI-H2085	0.694
HCC-366	0.606
NCI-H1666	0.539
NCI-H596	0.7
LK-2	0.392
A549	0.212
NCI-H1563	0.618

Same assay, conditions: first compound 0.1 µM

Cell Line	relative viability
NCI-H522	0.629
NCI-H1623	0.6
NCI-H727	0.618
NCI-H1650	0.404
NCI-H1993	0.5
SW 1573	0.24
NCI-H838	0.685
LCLC-103H	0.33
NCI-H520	0.303
NCI-H2126	0.513
EMC-BAC-2	0.578
NCI-H2085	0.674
HCC-366	0.637
NCI-H1666	0.539
NCI-H596	0.727
A549	0.164
NCI-H1563	0.701

Same assay, conditions: first compound 0.3162 µM

Cell Line	relative viability
NCI-H522	0.576
NCI-H1623	0.56
NCI-H727	0.515
NCI-H1650	0.277
NCI-H1993	0.478
SW 1573	0.209
NCI-H838	0.521
LCLC-103H	0.329
NCI-H520	0.236
NCI-H2126	0.496
EMC-BAC-2	0.502
NCI-H2085	0.706
HCC-366	0.62
NCI-H1666	0.987
NCI-H596	0.744
A549	0.17
NCI-H1563	0.63

Same assay, conditions: first compound 1 µM

Cell Line	relative viability
NCI-H522	0.624
NCI-H1623	0.473
NCI-H727	0.502
NCI-H1650	0.303
NCI-H1993	0.495
SW 1573	0.194
NCI-H838	0.583
LCLC-103H	0.327
NCI-H520	0.233
NCI-H2126	0.478
EMC-BAC-2	0.52
NCI-H2085	0.719
HCC-366	0.617
NCI-H1666	0.534
NCI-H596	0.761
LK-2	0.455
A549	0.154
NCI-H1563	0.649

Compound: CCOC1=CC=CC=C1N=NC2=C(NN(C2=O)C3=NC(=CS3)C4=CC=CC=C4)C [BAM7] + N=C(N)NC(=N)NCCc1ccccc1 [Phenformin] (partner 250 µM)
Assay: as above
Conditions: first compound 0.5 µM
How it was run: as §1

Cell Line	relative viability
NCI-H522	0.671
NCI-H1623	0.606
NCI-H727	0.42
NCI-H1650	0.473
NCI-H1993	0.575
SW 1573	0.386
NCI-H838	0.544
LCLC-103H	0.334
NCI-H520	0.668
NCI-H2126	0.494
EMC-BAC-2	0.567
NCI-H2085	0.691
HCC-366	0.576
NCI-H1666	0.592
NCI-H596	0.751
LK-2	0.507
A549	0.161
NCI-H1563	0.62

Same assay, conditions: first compound 5 µM

Cell Line	relative viability
NCI-H522	0.768
NCI-H1623	0.561
NCI-H1650	0.501
NCI-H1993	0.617
SW 1573	0.381
NCI-H838	0.572
LCLC-103H	0.354
NCI-H520	0.573
NCI-H2126	0.54
EMC-BAC-2	0.533
NCI-H2085	0.619
HCC-366	0.605
NCI-H1666	0.588
NCI-H596	0.804
LK-2	0.389
A549	0.213
NCI-H1563	0.685

Same assay, conditions: first compound 15.81 µM

Cell Line	relative viability
NCI-H522	0.614
NCI-H1623	0.542
NCI-H727	0.576
NCI-H1650	0.484
NCI-H1993	0.533
SW 1573	0.327
NCI-H838	0.597
LCLC-103H	0.336
NCI-H520	0.704
NCI-H2126	0.473
EMC-BAC-2	0.535
NCI-H2085	0.625
HCC-366	0.668
NCI-H1666	0.588
NCI-H596	0.705
LK-2	0.466
A549	0.219
NCI-H1563	0.654

Same assay, conditions: first compound 50 µM

Cell Line	relative viability
NCI-H522	0.712
NCI-H1623	0.673
NCI-H727	0.603
NCI-H1650	0.472
NCI-H1993	0.543
SW 1573	0.39
NCI-H838	0.648
LCLC-103H	0.327
NCI-H520	0.707
NCI-H2126	0.556
EMC-BAC-2	0.61
NCI-H2085	0.711
HCC-366	0.594
NCI-H1666	0.563
NCI-H596	0.811
LK-2	0.636
A549	0.216
NCI-H1563	0.685
